Lethality and pest controlling effects data for 28 compounds are collected here from patent US20110172433A1, “NOVEL IMINO DERIVATIVES, METHODS FOR PRODUCING THE SAME AND INSECTICIDES CONTAINING THE SAME” (priority 2008, published 2011).

For one assay, the system named is greenhouse whitefly. As to the kind of experiment: Greenhouse whitefly controlling effect (cucumber dip). To be noted: wettable powder per Formulation Example 2, active ingredient 100 μg/ml, 25° C., after 120 hours. Format: in vivo, Trialeurodes vaporariorum.
Description: This was allowed to be inhabited with 20 adult insects of the greenhouse whitefly, covered with the stopper, and allowed to stand in a room whose temperature was constant at 25° C. After 120 hours, the number of viable insects was counted.
The overground part of the 1-leaf stage cucumber was dipped in a 100 μg/ml treatment solution obtained by a 5000-fold dilution with water of the prepared wettable powder, and air-dried, and then transferred to a plastic container having a stopper. This was allowed to be inhabited with 20 adult insects of the greenhouse whitefly, covered with the stopper, and allowed to stand in a room whose temperature was constant at 25° C. After 120 hours, the number of viable insects was counted.
With `O=C(/N=C1\SCCN1Cc1ccc(Cl)nc1)C(F)(F)F` [Formula (12)], the lethality was determined as 25%.

Another assay concerns cotton aphid, green peach aphid, greenhouse whitefly, two-spotted spider mite.
Test: not given
To be noted: in vivo.
As for `O=C(N=C1SCCN1Cc1ccc(Cl)nc1)C(Cl)(Cl)Cl` [Compound 5], the pest controlling effects entry is “excellent pest controlling effects”.

On to `CCCOC(=O)N=C1SCCN1Cc1ccc(Cl)nc1` [Compound 43], for which the pest controlling effects result is recorded as “excellent pest controlling effects”. On the same count and under the same terms, next, `CC(C)OC(=O)N=C1SCCN1Cc1ccc(Cl)nc1` [Compound 44]: “excellent pest controlling effects”; `O=C(N=C1SCCN1Cc1ccc(Cl)nc1)OCCCl` [Compound 45]: “excellent pest controlling effects”.

For `CC(=O)N=C1SCCN1Cc1ccc(Cl)nc1` [Compound 72], the pest controlling effects result is reported as “excellent pest controlling effects”. As to `O=C(CCl)N=C1SCCN1Cc1ccc(Cl)nc1` [Compound 73], the pest controlling effects result is “excellent pest controlling effects”.

For the compound `O=C(N=C1SCCN1Cc1ccc(Cl)nc1)C(F)F` [Compound 76], the pest controlling effects result is given as “excellent pest controlling effects”. The same measure, in the same setting: next, `COCC(=O)N=C1SCCN1Cc1ccc(Cl)nc1` [Compound 78]: “excellent pest controlling effects”; `CSCCC(=O)N=C1SCCN1Cc1ccc(Cl)nc1` [Compound 90]: “excellent pest controlling effects”. Take `O=C(N=C1SCCN1Cc1ccc(Cl)nc1)C1CC1` [Compound 92]: the pest controlling effects result is listed as “excellent pest controlling effects”. Same read-out and setting: next, `O=C(N=C1SCCN1Cc1ccc(Cl)nc1)C1CC1(F)F` (stereo not shown) [Compound 103]: “excellent pest controlling effects”.

As to `CONC(=O)N=C1SCCN1Cc1ccc(Cl)nc1` [Compound 106], the pest controlling effects entry is “excellent pest controlling effects”. The same measure, in the same setting: next, `CCOC(=O)N=C1SCCN1Cc1ccc(Cl)nc1` [Compound 113]: “excellent pest controlling effects”. On the same count and under the same terms, next, `O=C(N=C1SCCN1Cc1ccc(Cl)nc1)OCCF` [Compound 114]: “excellent pest controlling effects”; `O=C(N=C1SCCN1Cc1ccc(Cl)nc1)OCC(F)F` [Compound 115]: “excellent pest controlling effects”; `COCCOC(=O)N=C1SCCN1Cc1ccc(Cl)nc1` [Compound 118]: “excellent pest controlling effects”. For the compound `CSCCOC(=O)N=C1SCCN1Cc1ccc(Cl)nc1` [Compound 119], the pest controlling effects result is “excellent pest controlling effects”. The same measure, in the same setting: next, `O=C(N=C1SCCN1Cc1ccc(Cl)nc1)OCCCF` [Compound 122]: “excellent pest controlling effects”; `C=CCOC(=O)N=C1SCCN1Cc1ccc(Cl)nc1` [Compound 126]: “excellent pest controlling effects”; `CCCCOC(=O)N=C1SCCN1Cc1ccc(Cl)nc1` [Compound 128]: “excellent pest controlling effects”.

Turning to `CC(C)COC(=O)N=C1SCCN1Cc1ccc(Cl)nc1` [Compound 129], the pest controlling effects entry is listed as “excellent pest controlling effects”.

For the compound `CCC(C)OC(=O)N=C1SCCN1Cc1ccc(Cl)nc1` (stereo not shown) [Compound 130], the pest controlling effects entry was “excellent pest controlling effects”. The same measure, in the same setting: next, `CC(C)=CCOC(=O)N=C1SCCN1Cc1ccc(Cl)nc1` [Compound 135]: “excellent pest controlling effects”.

For the compound `CCCCCOC(=O)N=C1SCCN1Cc1ccc(Cl)nc1` [Compound 136], the pest controlling effects result is “excellent pest controlling effects”. `O=C(N=C1SCCN1Cc1ccc(Cl)nc1)OCC1CC1` [Compound 139]: the pest controlling effects result is recorded as “excellent pest controlling effects”. The same measure, in the same setting: next, `O=C(N=C1SCCN1Cc1ccc(Cl)nc1)OCC1CCOC1` (stereo not shown) [Compound 144]: “excellent pest controlling effects”. Still for that read-out and setting: with `O=C(N=C1SCCN1Cc1ccc(Cl)nc1)OC1CCOCC1` [Compound 146] the entry was “excellent pest controlling effects”.
